In patent US8716478B2, “Boron-containing small molecules” (Anacor Pharmaceuticals, Inc., priority 2010, dated 2014):
Like-named read-outs stand apart in the source and are kept apart here.

What was measured:
[1] = test system: Schistosoma mansoni schistosomula; assay: Schistosoma mansoni schistosomula phenotypic screen; settings: for phenotypes caused by positive control compounds in schistosomula: positive controls; for Schistosomula (juvenile infective form) worm screen phenotype, 24 h: Second Set, 5 uM
Excerpt: (§1) Puerto Rican isolates of S. mansoni using Biomphalaria glabrata snails and golden hamsters as intermediate and definitive hosts, respectively, were maintained and handled in the University of California-San Francisco Sandler Center for Tropical Medicine. Patent B. glabrata snails (6-8 weeks after exposure to 5-10 infectious miracidia) were induced to shed infective larvae (cercariae) under light stimulus into the surrounding water. Cercariae were washed in rounds of ice-cold water and concentrated through and over sieves of varying pore sizes. They were then mechanically sheared (separation of heads from tails) as described in Colley D G, et al. Exp Parasitol 1974, 35:44-51, in ice-cold Incomplete Medium 169 (as described in Basch P F. J Parasitol 1981, 67:179-185, minus FBS and antibiotics) by passing 15 times through a double headed 22-gauge syringe needle connected to two 10 mL syringes. The resulting cercarial heads (schistosomula) were separated from their tails by swirling in a petri dish. Concentrated schistosomula were added to a sterile 1.5 mL centrifuge tube and allowed to settle over ice. Schistosomula were transferred to a sterile environment and washed 4 times in Incomplete Medium 169 prior to plating.
(§2) Two sets of screening were performed. In the first set, compounds were screened against schistosomula and observations were made at 24 hours, 2 days, 3 days, 4 days, and 6 days. In the second set, compounds were screened against schistosomula with observations at 24 hours, 2 days, 3 days, and 4 days and adult worms at 7 hours, 24 hours, 4 days, and 6 days.
Plates contain 200 schistosomula/well in […] complete Basch medium and were maintained at 37° C. in a 5% CO2 atmosphere. All compounds were tested in duplicate with at least two experimental replicates. Compounds and control compounds were added to the plates using the Biomek FXp using 96-well disposable tips. Final concentration of DMSO in each well was 0.5%.
(§3) A semi-quantitative and controlled nomenclature for phenotypes that can arise as a result of compound insult to both schistosomula and adults was utilized (Abdulla M H, et al., PLoS Negl Trop Dis 2009, 3:e478). Phenotypes were recorded by visual inspection and on a flexible time basis but at least at 24 h and 4 day time-points in the case of large scale screening. […] To help eliminate bias, two screen analysts scored phenotypes ‘blind’ both to knowledge of the contents of each screening plate and the phenotypes scored by his/her colleague. Upon completing their individual assessments, each analyst's ‘hit sheet’ was then compared to derive a ‘consensus hit sheet’. Discrepancies in analysts' hit sheets were re-evaluated under the microscope to eventually make a consensus hit call.
(§4) Hyper-coiled and coiled represent a verbal description of the visual phenotype as compared to the DMSO control. The + and ++ and +++ means more of the phenotype which preceded it. The − means less of the phenotype which preceded it. Results

[2] = test system: Schistosoma mansoni adult worms; assay: Schistosoma mansoni adult worm phenotypic screen; settings: for phenotypes caused by positive control compounds in adult worms: positive controls
Excerpt: as §1, §2
Given the delicacy and size (0.5-1.5 cm in length) of this stage all operations were performed manually by the Sandler Center. 24-well plates were set up with compound (final DMSO concentration=0.5%) containing approximately 5 pairs of worms (S. mansoni has separate sexes) in 2 mL complete Basch medium per well. Plates were maintained at 37° C. in a 5% CO2 atmosphere. All compounds were tested in duplicate with at least two experimental replicates.
as §3, §4

TNF-α = assay: In vivo TNF-α release in LPS treated mice; set-up: species or system Swiss Webster mice
Protocol: In vivo TNF-α release was measured in Swiss Webster mice, 10/group. Animals were dosed via oral gavage with drug 1% CMC suspension. Thirty minutes later LPS, 1.5 mg/kg was administered by intraperitoneal injection. Ninety minutes later animals were sacrificed, blood was collected by exsangination and serum prepared for analysis. TNF-α concentration was assessed by ELISA, non-drug treated animals had TNF-α levels 1000-3000 pg/mL. 6-(1-Hydroxy-1,3-dihydrobenzo[c][1,2]oxaborol-5-yloxy)-2-(2-isopropoxyethoxy)nicotinonitrile (D140) and 6-(1-hydroxy-1,3-dihydrobenzo[c][1,2]oxaborol-5-yloxy)-2-(4-oxopentyloxy)nicotinonitrile (D141) are disclosed in U.S. patent application Ser. No. 12/399,015, filed Mar. 5, 2009.

human PDE4 enzyme = assay: Phosphodiesterase 4 (PDE4) inhibition, semi-purified enzyme from human U937 cells; type: biochemical
[3] = test system: TNF-α in peripheral blood mononuclear cells (PBMCs); assay: TNF-α inhibition in LPS-stimulated peripheral blood mononuclear cells; type: cell-based; settings: PBMC
Protocol: Peripheral blood mononuclear cells (PBMCs) pooled from 10-20 donors were obtained from a local blood bank, ficoll gradient purified, and stored frozen in liquid nitrogen. Cells were thawed and seeded into 96-well plates at 5×10^5 cells/well in RPMI 1640 with 10% heat-inactivated fetal calf serum (MediaTech, Inc, Hearndon, Va., USA), Test articles were evaluated at the indicated concentrations in 150 μL media containing <2% DMSO, final, with stimulant and PBMCs. Cells were stimulated with lipopolysaccharide (LPS, phenol-extract from E. coli, Sigma-Aldrich, St. Louis, Mo.) at 1 μg/mL. Stimulation was with LPS for 24 h to measure TNF-α. Cytokines in supernatants were analyzed with a FACSArray flow cytometer (BD Biosciences, San Jose, Calif., USA) using the BD Cytometric Bead Array (CBA) Flex Set (BD Biosciences). IC50 values were calculated using the four parameter logistic equation.

[4] = Pharmacokinetics and oral bioavailability after IV and PO dosing; type: in vivo, female CD-1 mice; settings: plasma; for bioavailability / AUC: female, CD-1, mouse; for bioavailability: po; for AUC: 10 mg/kg oral suspension dose; for clearance: mouse, 5 mg/kg, female CD-1 mice, intravenous
Protocol: The objective of this study was to evaluate the pharmacokinetics and oral bioavailability of PDE4 inhibitors following intravenous (IV) administration and oral (PO) doses in female CD-1 mice.
After dosing, blood samples were collected through 24 h, twice from each animal at specific times (3 mice/time point), into microcentrifuge tubes containing K2EDTA (anticoagulant), stored on wet ice and processed for plasma. The plasma samples were analyzed for concentrations of parent compound by LC/MS/MS using an internal standard/peak area method. Pharmacokinetic analysis of the mean plasma concentration-time profiles following IV and PO administration was performed.
[…] Dosing solutions for intravenous administration were prepared in 55% PEG300/25% PG/20% water. Oral dosing used a suspension prepared in 1% CMC in water with 0.1% Tween 80.
After dosing, blood samples were collected through 24 h, twice from each animal via retro-orbital bleed (˜0.1 mL, 1st time point) or cardiac puncture (˜0.6 mL, 2nd time point) at specific times (3 mice/time point), into microcentrifuge tubes containing K2EDTA (anticoagulant) and stored on wet ice prior to processing.
Plasma was prepared by centrifugation of blood samples for 6 min at approximately 2000×g or 6000 rpm at 4° C. All processed plasma samples (˜50 μL and 300 μL) were transferred to analysis tubes, placed on dry ice immediately and later stored at −80° C. until analysis for concentrations of experimental compound by LC/MS/MS.
Mouse IV clearance, Mouse Oral AUC and Oral Bioavailability are provided below. 6-(1-Hydroxy-1,3-dihydrobenzo[c][1,2]oxaborol-5-yloxy)-2-(2-isopropoxyethoxy)nicotinonitrile (D140) and 6-(1-hydroxy-1,3-dihydrobenzo[c][1,2]oxaborol-5-yloxy)-2-(4-oxopentyloxy)nicotinonitrile (D141) are disclosed in U.S. patent application Ser. No. 12/399,015, filed Mar. 5, 2009.

Brugia malayi = Brugia malayi in vitro assay, adult female worms; settings: 50 uM; trial two
Protocol: Adult female worms are shipped from TRS Labs Inc. (Nonglak Supakorndej, Lab Director, 295 Research Dr., Athens, Ga. 30605; 706-549-0764) via Fed Ex. Individual worms are shipped in 2 mls vials with RPMI on Mondays and arrive at the […] Center lab on Tuesday mornings. Individual worms are poured into each well (24-well tissue culture plates) to avoid handling worms since they are very delicate and easily broken. Transport media is removed and replaced with 0.5 mls of RPMI-1640 (25 mM HEPES, 2 g/L NaHCO3, Antibiotic/Antimycotic, 5% HI FBS). Worms are maintained in a 37° C. 5% CO2 incubator. Compounds are added directly to each duplicate well (5 ul of 5 mM for a final concentration of 50 uM). DMSO (5 ul) is used as a negative control and Ivermectin (Sigma) is used as a positive control at 100 uM/well and 20 uM/well. Adult filarial nematodes can shed/give birth to microfilarial worms (mf) during the course of the assay. Wells were reviewed for the presence of mf, and the viability of mf, by visual observation of the well on the last day of observation (Day 7). Plates are examined once a day for 4-7 days. […] If changes are observed, worms are more closely examined under a dissecting microscope.

O=C(Nc1ccc([N+](=O)[O-])cc1Cl)c1cc(Cl)ccc1O [niclosamide, reference compound]
phenotypes caused by positive control compounds in schistosomula [1]: dose-dependent, rapid and severe phenotypes
phenotypes caused by positive control compounds in adult worms [2]: dose-dependent, rapid and severe phenotypes

O=C(C1CCCCC1)N1CC(=O)N2CCc3ccccc3C2C1 (stereo not drawn) [PZQ, reference compound]
phenotypes caused by positive control compounds in schistosomula [1]: dose-dependent, rapid and severe phenotypes
phenotypes caused by positive control compounds in adult worms [2]: dose-dependent, rapid and severe phenotypes

N#Cc1ccc(Oc2ccc3c(c2)COB3O)nc1 [6-(1-hydroxy-1,3-dihydrobenzo[c][1,2]oxaborol-5-yloxy)nicotinonitrile]
Schistosomula (juvenile infective form) worm screen phenotype, 24 h ([1]; 24 h): R−, O,
Adult worm screen phenotype, 7 h ([2]; 5 uM): O−

CC(C)OCCOc1nc(Oc2ccc3c(c2)COB3O)ccc1C#N [Compound D140, 6-(1-Hydroxy-1,3-dihydrobenzo[c][1,2]oxaborol-5-yloxy)-2-(2-isopropoxyethoxy)nicotinonitrile]
% Inhibition of TNFa Blood Levels in LPS Treated Mice (TNF-α; Oral Dose 0.3 mg/kg): 26.4%
% Inhibition of TNFa Blood Levels in LPS Treated Mice (TNF-α; Oral Dose 0.5 mg/kg): 30%
% Inhibition of TNFa Blood Levels in LPS Treated Mice (TNF-α; Oral Dose 1 mg/kg): 50.2%
% Inhibition of TNFa Blood Levels in LPS Treated Mice (TNF-α; Oral Dose 3 mg/kg): 59.35%
% Inhibition of TNFa Blood Levels in LPS Treated Mice (TNF-α; Oral Dose 5 mg/kg): 72%
% Inhibition of TNFa Blood Levels in LPS Treated Mice (TNF-α; Oral Dose 10 mg/kg): 74%
% Inhibition of TNFa Blood Levels in LPS Treated Mice (TNF-α; Oral Dose 30 mg/kg): 83.5%
IC50 (human PDE4 enzyme; under similar conditions, read-out: PDE4 IC50 value): 9 nM
IC50 ([3]; under similar conditions, read-out: TNF-α IC50 value): 3.6 nM
bioavailability [4]: 24%
AUC [4]: 810 ng·h/mL
clearance [4]: 56.7 mL/min/kg
Adult worm screen phenotype, 7 h ([2]; 5 uM): O++

CC(C)OCCOc1nc(Oc2ccc3c(c2)COB3O)ccc1C#N [6-(1-hydroxy-1,3-dihydrobenzo[c][1,2]oxaborol-5-yloxy)-2-(4-isopropoxy-ethoxy)nicotinonitrile]
worm activity score / phenotype, Day 3 (Brugia malayi): 4 (highly active (controls))

COc1nc(Oc2cc3c(cc2F)B(O)OC3)ccc1C#N [6-(6-Fluoro-1-hydroxy-1,3-dihydrobenzo[c][1,2]oxaborol-5-yloxy)-2-methoxynicotinonitrile]
schistosomula phenotype, 24 h ([1]; First Set, 24 h): O+
Adult worm screen phenotype, 7 h ([2]; 5 uM): O++

CC(C)OCCOc1nc(Oc2ccc3c(c2)COB3O)c(Cl)cc1C#N [Compound D230, 5-chloro-6-(1-hydroxy-1,3-dihydrobenzo[c][1,2]oxaborol-5-yloxy)-2-(2-isopropoxyethoxy)nicotinonitrile]
% Inhibition of TNFa Blood Levels in LPS Treated Mice (TNF-α; Oral Dose 0.1 mg/kg): 39%
% Inhibition of TNFa Blood Levels in LPS Treated Mice (TNF-α; Oral Dose 0.3 mg/kg): 59%
% Inhibition of TNFa Blood Levels in LPS Treated Mice (TNF-α; Oral Dose 0.5 mg/kg): 55%
% Inhibition of TNFa Blood Levels in LPS Treated Mice (TNF-α; Oral Dose 1 mg/kg): 76%
% Inhibition of TNFa Blood Levels in LPS Treated Mice (TNF-α; Oral Dose 3 mg/kg): 80%
% Inhibition of TNFa Blood Levels in LPS Treated Mice (TNF-α; Oral Dose 5 mg/kg): 77%
% Inhibition of TNFa Blood Levels in LPS Treated Mice (TNF-α; Oral Dose 10 mg/kg): 77%
IC50 (human PDE4 enzyme; 1 μM cAMP, 20 minutes at 25° C., read-out: PDE4 IC50): 5.2 nM
IC50 ([3]; PBMCs, LPS 1 μg/mL for 24 h, read-out: Proinflammatory TNF-α IC50): 2.5 nM
bioavailability [4]: 60%
AUC [4]: 3000 ng·h/mL
clearance [4]: 36.7 mL/min/kg

O=C(Nc1ccc(Oc2ccc(Cl)cc2)c(Cl)c1)c1cc(I)cc(I)c1O [rafoxanide, reference compound]
phenotypes caused by positive control compounds in schistosomula [1]: dose-dependent, rapid and severe phenotypes
phenotypes caused by positive control compounds in adult worms [2]: dose-dependent, rapid and severe phenotypes

N#Cc1ccc(Oc2ccc3c(c2)COB3O)nc1OC1CCCC1 [2-Cyclopentyloxy-6-(1-hydroxy-1,3-dihydro-benzo[c][1,2]oxaborol-5-yloxy)-nicotinonitrile]
Schistosomula (juvenile infective form) worm screen phenotype, 24 h ([1]; 24 h): R, O+
Adult worm screen phenotype, 7 h ([2]; 5 uM): O+
Adult worm screen phenotype, 24 h ([2]; 5 uM, 24 h): O−
